Test results reported in PubChem BioAssay (NCI).
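GI50 marks 50% less growth. Definition used: TGI = concentration required for complete inhibition of growth.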

How the values were obtained:
Assay in all cases: NCI anticancer screen, dose series, 384-well format
[1] = tested on: 786-0 renal
[2] = tested on: A498 renal
[3] = tested on: A549 NSCLC
[4] = tested on: BT-549 breast
[5] = tested on: CCRF-CEM leukemia
[6] = tested on: COLO 205 colon
[7] = tested on: DU-145 prostate
[8] = tested on: EKVX NSCLC
[9] = tested on: HCC-2998 colon
[10] = tested on: HCT-15 colon
[11] = tested on: HL-60(TB) leukemia
[12] = tested on: HOP-62 NSCLC
[13] = tested on: HOP-92 NSCLC
[14] = tested on: HS 578T breast
[15] = tested on: HT29 colon
[16] = tested on: IGROV1 ovarian
[17] = tested on: K-562 leukemia
[18] = tested on: KM12 colon
[19] = tested on: M14 melanoma
[20] = tested on: MALME-3M melanoma
[21] = tested on: MCF7 breast
[22] = tested on: MDA-MB-231 breast
[23] = tested on: MDA-MB-435 melanoma
[24] = tested on: MDA-MB-468 breast
[25] = tested on: MOLT-4 leukemia
[26] = tested on: NCI-H23 lung
[27] = tested on: NCI-H322M lung
[28] = tested on: NCI-H522 lung
[29] = tested on: NCI/ADR-RES ovarian
[30] = tested on: OVCAR-3 ovarian
[31] = tested on: OVCAR-4 ovarian
[32] = tested on: OVCAR-5 ovarian
[33] = tested on: OVCAR-8 ovarian
[34] = tested on: PC-3 prostate
[35] = tested on: RPMI-8226 leukemia
[36] = tested on: RXF 393 renal
[37] = tested on: SF-268 CNS
[38] = tested on: SF-295 CNS
[39] = tested on: SF-539 CNS
[40] = tested on: SK-MEL-28 melanoma
[41] = tested on: SK-MEL-5 melanoma
[42] = tested on: SK-OV-3 ovarian
[43] = tested on: SN12C renal
[44] = tested on: SNB-75 CNS
[45] = tested on: SR leukemia
[46] = tested on: SW-620 colon
[47] = tested on: UACC-257 melanoma
[48] = tested on: UACC-62 melanoma
[49] = tested on: UO-31 renal

## CC[C@H](Nc1nc(NCc2cnc(C)cc2C)c2ncn(C(C)C)c2n1)[C@@H](C)O
[1]
  GI50: 227 nM
  TGI: 657 nM
[2]
  GI50: 240 nM
  TGI: 648 nM
[3]
  GI50: 315 nM
  TGI: > 100000 nM
[4]
  GI50: 138 nM
  TGI: 294 nM
[5]
  GI50: 160 nM
  TGI: 307 nM
[6]
  GI50: 206 nM
  TGI: 508 nM
[7]
  GI50: 302 nM
  TGI: 1260 nM
[8]
  GI50: 267 nM
  TGI: 757 nM
[9]
  GI50: 159 nM
  TGI: 380 nM
[10]
  GI50: 296 nM
  TGI: 817 nM
[11]
  GI50: 148 nM
  TGI: 282 nM
[12]
  GI50: 225 nM
  TGI: 638 nM
[13]
  GI50: 230 nM
  TGI: 569 nM
[14]
  GI50: 134 nM
  TGI: 291 nM
[15]
  GI50: 198 nM
  TGI: 472 nM
[16]
  GI50: 277 nM
  TGI: 797 nM
[17]
  GI50: 286 nM
  TGI: 960 nM
[18]
  GI50: 239 nM
  TGI: 737 nM
[19]
  GI50: 156 nM
  TGI: 533 nM
[20]
  GI50: 298 nM
  TGI: 967 nM
[21]
  GI50: 333 nM
  TGI: 1330 nM
[22]
  GI50: 196 nM
  TGI: 767 nM
[23]
  GI50: 245 nM
  TGI: 693 nM
[24]
  GI50: 182 nM
  TGI: 334 nM
[25]
  GI50: 184 nM
  TGI: 334 nM
[26]
  GI50: 173 nM
  TGI: 343 nM
[27]
  GI50: 226 nM
  TGI: 501 nM
[28]
  GI50: 180 nM
  TGI: 341 nM
[29]
  GI50: 1540 nM
  TGI: 4670 nM
[30]
  GI50: 232 nM
  TGI: 516 nM
[31]
  GI50: 316 nM
  TGI: 1290 nM
[32]
  GI50: 248 nM
  TGI: 691 nM
[33]
  GI50: 225 nM
  TGI: 551 nM
[34]
  GI50: 224 nM
  TGI: 594 nM
[35]
  GI50: 149 nM
  TGI: 284 nM
[36]
  GI50: 175 nM
  TGI: 349 nM
[37]
  GI50: 166 nM
  TGI: 386 nM
[38]
  GI50: 224 nM
  TGI: 522 nM
[39]
  GI50: 185 nM
  TGI: 383 nM
[40]
  GI50: 163 nM
  TGI: 335 nM
[41]
  GI50: 139 nM
  TGI: 291 nM
[42]
  GI50: 452 nM
  TGI: 3390 nM
[43]
  GI50: 217 nM
  TGI: 487 nM
[44]
  GI50: 183 nM
  TGI: 424 nM
[45]
  GI50: 137 nM
  TGI: 269 nM
[46]
  GI50: 205 nM
  TGI: 780 nM
[47]
  GI50: 232 nM
  TGI: 445 nM
[48]
  GI50: 171 nM
  TGI: 397 nM
[49]
  GI50: 353 nM
  TGI: > 100000 nM
